{"source": "ChEMBL document CHEMBL1201862", "about": "“PubChem BioAssay data set” (2004)", "key": {"[1]": {"test": "microbe, parasite or virus in culture", "format": "functional", "conditions": "Mycobacterium tuberculosis"}, "Cytochrome P450 1A2": {"molecular_target": "T1, Cytochrome P450 1A2 (Homo sapiens, UniProt P05177)", "T1 sequence (P05177 whole entry)": "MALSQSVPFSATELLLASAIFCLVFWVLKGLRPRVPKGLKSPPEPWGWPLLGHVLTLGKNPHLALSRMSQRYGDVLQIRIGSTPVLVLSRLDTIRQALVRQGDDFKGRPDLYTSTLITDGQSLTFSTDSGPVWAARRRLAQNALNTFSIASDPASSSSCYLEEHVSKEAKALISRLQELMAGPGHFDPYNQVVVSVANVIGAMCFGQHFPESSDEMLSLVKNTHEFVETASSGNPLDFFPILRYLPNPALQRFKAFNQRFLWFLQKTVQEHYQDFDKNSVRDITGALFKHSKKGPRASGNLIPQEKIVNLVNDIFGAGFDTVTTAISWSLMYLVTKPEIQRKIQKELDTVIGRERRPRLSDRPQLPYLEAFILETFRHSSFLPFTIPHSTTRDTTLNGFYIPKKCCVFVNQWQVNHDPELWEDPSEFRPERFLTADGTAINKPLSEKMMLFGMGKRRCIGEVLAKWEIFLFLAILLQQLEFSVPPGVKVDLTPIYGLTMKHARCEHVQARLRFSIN"}, "Cytochrome P450 2C19": {"molecular_target": "Cytochrome P450 2C19 (Homo sapiens, UniProt P33261)", "sequence (P33261 whole entry)": "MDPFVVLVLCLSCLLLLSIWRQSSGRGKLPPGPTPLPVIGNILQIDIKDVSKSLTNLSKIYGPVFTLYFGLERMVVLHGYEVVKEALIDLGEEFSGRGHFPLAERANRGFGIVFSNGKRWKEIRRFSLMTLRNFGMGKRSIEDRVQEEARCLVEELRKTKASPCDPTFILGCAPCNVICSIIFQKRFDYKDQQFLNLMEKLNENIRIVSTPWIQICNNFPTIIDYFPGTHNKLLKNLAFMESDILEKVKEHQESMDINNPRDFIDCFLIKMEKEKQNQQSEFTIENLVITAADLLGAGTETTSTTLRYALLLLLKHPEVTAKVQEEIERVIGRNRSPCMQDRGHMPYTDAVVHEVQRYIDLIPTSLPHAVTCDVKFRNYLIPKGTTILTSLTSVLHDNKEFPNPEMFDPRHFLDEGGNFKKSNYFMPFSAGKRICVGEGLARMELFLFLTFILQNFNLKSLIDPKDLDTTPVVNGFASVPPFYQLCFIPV", "test": "Cytochrome panel assay with activity outcomes. Panel member name: p450-cyp2c19 Compounds with AC50 equal or less than 10 uM are considered active", "format": "functional", "conditions": "read-out: AC50"}, "Cytochrome P450 3A4": {"molecular_target": "Cytochrome P450 3A4 (Homo sapiens, UniProt P08684)", "sequence (P08684 whole entry)": "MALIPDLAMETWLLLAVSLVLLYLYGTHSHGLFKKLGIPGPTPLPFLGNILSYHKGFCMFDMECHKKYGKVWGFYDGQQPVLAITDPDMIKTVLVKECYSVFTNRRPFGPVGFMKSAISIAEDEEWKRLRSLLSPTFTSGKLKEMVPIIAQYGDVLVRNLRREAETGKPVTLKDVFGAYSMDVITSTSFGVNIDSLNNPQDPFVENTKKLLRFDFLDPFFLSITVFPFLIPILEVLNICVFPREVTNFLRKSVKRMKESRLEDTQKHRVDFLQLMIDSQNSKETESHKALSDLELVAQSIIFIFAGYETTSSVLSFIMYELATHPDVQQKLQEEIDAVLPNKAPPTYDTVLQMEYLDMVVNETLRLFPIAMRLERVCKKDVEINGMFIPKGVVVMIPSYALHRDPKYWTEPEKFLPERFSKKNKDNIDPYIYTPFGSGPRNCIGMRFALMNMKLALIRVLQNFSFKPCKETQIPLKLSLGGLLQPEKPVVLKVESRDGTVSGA"}, "[2]": {"molecular_target": "T2, Heat shock factor protein 1 (Mus musculus, UniProt P38532)", "T2 sequence (P38532 whole entry)": "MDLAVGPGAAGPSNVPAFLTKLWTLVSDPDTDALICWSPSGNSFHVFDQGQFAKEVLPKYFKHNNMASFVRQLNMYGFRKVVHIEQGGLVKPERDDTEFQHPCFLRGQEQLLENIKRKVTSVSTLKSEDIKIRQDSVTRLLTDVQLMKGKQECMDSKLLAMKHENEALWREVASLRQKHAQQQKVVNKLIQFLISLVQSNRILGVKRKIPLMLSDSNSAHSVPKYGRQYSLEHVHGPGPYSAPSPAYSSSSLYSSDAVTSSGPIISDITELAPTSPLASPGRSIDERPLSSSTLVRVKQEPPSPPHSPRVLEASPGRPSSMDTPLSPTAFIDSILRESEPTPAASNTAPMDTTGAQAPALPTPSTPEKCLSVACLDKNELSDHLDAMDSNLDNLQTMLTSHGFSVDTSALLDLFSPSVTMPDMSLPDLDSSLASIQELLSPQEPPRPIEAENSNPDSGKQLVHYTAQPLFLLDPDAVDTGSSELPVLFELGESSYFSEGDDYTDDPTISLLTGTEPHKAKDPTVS", "test": "enhancement of HSF1-driven luciferase signal – cell-based, NIH3T3, luminescence, dose retest, confirmation (AID 435004);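 note: stress induced by proteasome inhibitor MG132 added 30 min after compound; actives raise luminescence as potentiators of the MG132 stress response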", "format": "functional"}, "[3]": {"test": "viability of PTEN-deleted HCT116 cells – cell-based, HCT116 PTEN knockout, dose response (AID 1047);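 note: cells exposed to compound for 60 hours before readout; potency for loss of cell viability measured by luminescence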", "format": "functional"}, "[4]": {"test": "viability of HCT116 lacking mutant beta-catenin – cell-based, human colon tumor, dose response (AID 1045);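 note: cells exposed to compound for 60 hours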", "format": "functional"}, "[5]": {"test": "Luminescence Cell-Based Dose Confirmation HTS to Identify Inhibitors of Platelet Dense Granule Release. [Related pubchem assays: 1663 (Primary HTS), 1678 (Summary of Project)]", "format": "functional"}, "[6]": {"molecular_target": "Luciferin 4-monooxygenase (Photinus pyralis, UniProt P08659)", "sequence (P08659 whole entry)": "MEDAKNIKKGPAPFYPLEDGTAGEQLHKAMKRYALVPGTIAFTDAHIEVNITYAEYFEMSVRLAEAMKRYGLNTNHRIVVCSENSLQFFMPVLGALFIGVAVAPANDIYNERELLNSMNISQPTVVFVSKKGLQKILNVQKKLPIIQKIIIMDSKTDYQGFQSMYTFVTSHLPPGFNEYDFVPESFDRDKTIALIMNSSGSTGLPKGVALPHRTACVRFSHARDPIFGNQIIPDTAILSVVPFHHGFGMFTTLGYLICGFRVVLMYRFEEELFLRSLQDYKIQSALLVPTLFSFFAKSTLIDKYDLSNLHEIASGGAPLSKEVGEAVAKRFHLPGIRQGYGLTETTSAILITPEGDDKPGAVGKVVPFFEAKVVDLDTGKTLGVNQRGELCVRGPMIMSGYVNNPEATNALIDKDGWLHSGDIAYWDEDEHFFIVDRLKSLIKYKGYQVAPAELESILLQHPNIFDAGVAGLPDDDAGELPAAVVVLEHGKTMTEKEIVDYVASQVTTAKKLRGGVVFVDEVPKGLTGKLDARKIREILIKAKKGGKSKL", "test": "inhibition of purified Photinus pyralis luciferase – biochemical, luminescence, dose response (AID 1891)"}, "[7]": {"molecular_target": "FAD-linked sulfhydryl oxidase ALR (Homo sapiens, UniProt P55789)", "sequence (P55789 whole entry)": "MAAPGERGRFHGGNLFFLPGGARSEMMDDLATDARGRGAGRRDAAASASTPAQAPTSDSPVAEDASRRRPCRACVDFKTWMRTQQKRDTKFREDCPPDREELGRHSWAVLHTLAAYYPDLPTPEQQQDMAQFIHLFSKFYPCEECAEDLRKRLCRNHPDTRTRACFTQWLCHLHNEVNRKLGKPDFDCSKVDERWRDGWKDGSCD", "test": "ALR-catalysed DTT oxidation blockers – biochemical, H2O2 detection, luminescence, cherry-pick, dose response (AID 493248)"}, "[8]": {"molecular_target": "T3, RNA-binding protein pos-1 (Caenorhabditis elegans, UniProt G5EF15)", "T3 sequence (G5EF15 whole entry)": "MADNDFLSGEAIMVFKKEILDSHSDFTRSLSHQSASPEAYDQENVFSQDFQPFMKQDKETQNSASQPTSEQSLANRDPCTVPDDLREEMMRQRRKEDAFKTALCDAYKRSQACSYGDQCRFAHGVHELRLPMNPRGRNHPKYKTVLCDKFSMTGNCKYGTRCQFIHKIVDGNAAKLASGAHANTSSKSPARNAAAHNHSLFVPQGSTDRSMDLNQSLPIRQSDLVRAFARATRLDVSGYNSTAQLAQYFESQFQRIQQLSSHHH", "test": "disruptors of C. elegans POS-1 RNA interaction – biochemical, fluorescence polarization, dose response (AID 1964);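 note: purified POS-1 fused to maltose binding protein made in E. coli; potency of compounds blocking POS-1 binding to fluorescent RNA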"}, "[9]": {"molecular_target": "T4, Zinc finger protein mex-5 (Caenorhabditis elegans, UniProt Q9XUB2)", "T4 sequence (Q9XUB2 whole entry)": "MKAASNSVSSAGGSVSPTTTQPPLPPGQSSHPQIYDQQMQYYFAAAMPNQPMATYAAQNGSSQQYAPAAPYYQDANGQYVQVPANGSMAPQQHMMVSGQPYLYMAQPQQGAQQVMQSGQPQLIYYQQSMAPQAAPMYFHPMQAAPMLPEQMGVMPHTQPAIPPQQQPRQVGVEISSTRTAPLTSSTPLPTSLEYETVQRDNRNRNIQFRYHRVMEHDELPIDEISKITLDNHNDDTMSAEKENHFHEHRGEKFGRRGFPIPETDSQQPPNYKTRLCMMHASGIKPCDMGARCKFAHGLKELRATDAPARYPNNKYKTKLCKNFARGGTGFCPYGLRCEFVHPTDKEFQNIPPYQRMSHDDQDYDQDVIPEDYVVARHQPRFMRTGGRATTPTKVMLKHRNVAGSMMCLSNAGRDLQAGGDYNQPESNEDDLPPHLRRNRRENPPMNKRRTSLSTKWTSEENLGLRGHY", "test": "potency of MEX-5 RNA-binding blockers – biochemical, C. elegans, fluorescence polarization, dose response (AID 1960)"}}, "note": "Calls of active or inactive are those of the source."}
{"smiles": "N#CCCn1cc(/C=C2\\NC(=S)N(c3ccccc3)C2=O)c(-c2ccc(-c3ccccc3)cc2)n1", "values": [{"measurement": "CC50", "setting": "[1]", "result": "38.2 µM (active)"}]}
{"smiles": "Nc1ncncc1-c1ccc([N+](=O)[O-])cc1", "values": [{"measurement": "AC50", "setting": "Cytochrome P450 1A2", "result": "28.2 µM (inconclusive)"}, {"measurement": "AC50", "setting": "Cytochrome P450 2C19", "result": "10 µM (inconclusive)"}, {"measurement": "AC50", "setting": "Cytochrome P450 3A4", "result": "12.6 µM (inconclusive)"}]}
{"smiles": "CC1CC(C)(C)N(C(=O)NC2CCCCC2)c2ccccc21", "note": "(stereo not given)", "values": [{"measurement": "EC50", "setting": "[2]", "result": "> 260 µM (inactive)"}]}
{"smiles": "Cc1ccc(S(=O)(=O)c2cccc(S(=O)(=O)N3CCCC3)c2)cc1S(=O)(=O)N1CCCC1", "values": [{"measurement": "EC50", "setting": "[3]", "result": "35.7 µM (active)"}, {"measurement": "EC50", "setting": "[4]", "result": "28.3 µM (active)"}]}
{"smiles": "Cn1c(=O)n(C)c2cc(S(=O)(=O)NCc3ccccc3)ccc21", "values": [{"measurement": "EC50", "setting": "[5]", "result": "> 112 µM (not active)"}, {"measurement": "EC50", "setting": "[6]", "result": "> 112 µM (not active)"}]}
{"smiles": "Cc1cc(C)n2cc(COc3ccc4ccccc4c3)nc2n1", "values": [{"measurement": "EC50", "setting": "[2]", "result": "> 260 µM (inconclusive)"}]}
{"smiles": "COc1ccc2c(c1)N(CC[C@H]1CCCCN1C)c1ccccc1S2", "values": [{"measurement": "AC50", "setting": "Cytochrome P450 1A2", "result": "1.26 µM (inconclusive)"}]}
{"smiles": "O=C(NN=C1CCCC1)c1cc(-c2ccccc2)[nH]n1", "values": [{"measurement": "AC50", "setting": "[7]", "result": "16.9 µM (active)"}]}
{"smiles": "COC(=O)C1=C(C)N=C2SC(C#N)=C(N)N2C1c1cccc(OC)c1", "note": "(stereo not given)", "values": [{"measurement": "EC50", "setting": "[5]", "result": "> 112 µM (not active)"}, {"measurement": "EC50", "setting": "[8]", "result": "> 300 µM (not active)"}, {"measurement": "EC50", "setting": "[6]", "result": "> 112 µM (not active)"}, {"measurement": "EC50", "setting": "[9]", "result": "> 300 µM (not active)"}]}
{"smiles": "CC1(CCC(=O)N2CCCC(Nc3ccc(F)cc3)C2)CC1", "note": "(stereo not given)", "values": [{"measurement": "AC50", "setting": "[7]", "result": "5.27 µM (active)"}]}
{"smiles": "Cc1ccc(NC2CCCN(C(=O)c3cn4cccc(C)c4n3)C2)cc1C", "note": "(stereo not given)", "values": [{"measurement": "AC50", "setting": "[7]", "result": "9.91 µM (active)"}]}
{"smiles": "COC(=O)N1CCC[C@@]2(CCN(C(=O)Nc3ccccc3)C2)C1", "values": [{"measurement": "AC50", "setting": "Cytochrome P450 1A2", "result": "12.6 µM (inconclusive)"}]}
{"smiles": "CCNC(=S)N/N=C/c1ccc(-c2ccccc2)o1", "values": [{"measurement": "EC50", "setting": "[2]", "result": "> 260 µM (inactive)"}]}
{"smiles": "BrC(/C=C\\c1ccccc1)=N/Nc1nc(N2CCOCC2)nc(N2CCOCC2)n1", "values": [{"measurement": "EC50", "setting": "[2]", "result": "> 260 µM (inactive)"}]}
{"smiles": "COc1ccc(/C=N/NC(=O)c2ccncc2)cc1CN1CCN(c2ccc(F)cc2)CC1", "values": [{"measurement": "EC50", "setting": "[5]", "result": "> 112 µM (not active)"}, {"measurement": "EC50", "setting": "[6]", "result": "> 112 µM (not active)"}, {"measurement": "AC50", "setting": "[7]", "result": "7.46 µM (active)"}]}
{"smiles": "O=C1CC(=C(c2ccccc2)c2ccccc2)C(=O)N1CCCCN1CCN(c2ccccc2)CC1", "values": [{"measurement": "CC50", "setting": "[1]", "result": "> 40 µM (active)"}]}
